Laboratory results reported in article PMC7429357 (Journal of medicinal chemistry, 2020).
Where two headings read alike, the source gives them in different places.

Tests used:
[1] = target: T1, NTMT1 (Homo sapiens, UniProt Q9BV86); assay: SAHH-coupled fluorescence assay; format: biochemical; settings: for fold decrease in IC50 activity compared to 3: 10 min preincubation; for fold activity decrease compared to respective NAH-GPKRIA compound: 5 vs 1, 6 vs 2
T1 sequence (Q9BV86 1-223): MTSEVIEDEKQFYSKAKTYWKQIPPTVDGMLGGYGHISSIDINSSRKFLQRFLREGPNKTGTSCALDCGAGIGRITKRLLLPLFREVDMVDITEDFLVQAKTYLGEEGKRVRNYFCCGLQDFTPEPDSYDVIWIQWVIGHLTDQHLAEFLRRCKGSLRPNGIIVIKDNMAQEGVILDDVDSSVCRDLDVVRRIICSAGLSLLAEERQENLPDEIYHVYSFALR

[2] = target: euchromatic histone-lysine N-methyltransferase 2 (G9a) (Homo sapiens, UniProt Q96KQ7); settings: at 100 μM
[3] = target: nicotinamide N-methyltransferase (NNMT) (Homo sapiens, UniProt P40261); settings: at 100 μM
[4] = target: Trypanosoma brucei protein arginine methyltransferase 7 (TbPRMT7) (Trypanosoma brucei brucei, UniProt Q582G4); assay: biochemical
[5] = target: T1, NTMT1; assay: MALDI-MS methylation inhibition assay; format: biochemical; settings: 10 min preincubation, 20 min
[6] = target: SET domain-containing protein 7 (SETD7) (Homo sapiens, UniProt Q8WTS6); settings: at 100 μM
[7] = tested on: NTMT1; settings: cited from earlier work
[8] = tested on: other methyltransferases; settings: cited from earlier work
[9] = tested on: NTMT1; settings: MALDI-MS based assay; cited from earlier work
[10] = target: T1, NTMT1

Chain of Trypanosoma brucei protein arginine methyltransferase 7 (TbPRMT7) (Q582G4 whole entry): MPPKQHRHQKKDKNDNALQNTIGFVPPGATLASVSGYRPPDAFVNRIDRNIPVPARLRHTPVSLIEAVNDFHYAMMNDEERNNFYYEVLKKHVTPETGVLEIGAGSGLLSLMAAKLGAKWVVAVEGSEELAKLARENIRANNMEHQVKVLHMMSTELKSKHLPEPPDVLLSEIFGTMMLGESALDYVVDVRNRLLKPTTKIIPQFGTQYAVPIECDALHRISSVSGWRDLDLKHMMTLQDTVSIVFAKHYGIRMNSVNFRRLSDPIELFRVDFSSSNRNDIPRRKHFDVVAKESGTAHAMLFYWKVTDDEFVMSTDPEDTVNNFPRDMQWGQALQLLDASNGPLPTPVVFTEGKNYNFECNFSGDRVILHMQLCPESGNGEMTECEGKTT
Chain of SET domain-containing protein 7 (SETD7) (Q8WTS6 whole entry, species assumed, the tested form may be a part): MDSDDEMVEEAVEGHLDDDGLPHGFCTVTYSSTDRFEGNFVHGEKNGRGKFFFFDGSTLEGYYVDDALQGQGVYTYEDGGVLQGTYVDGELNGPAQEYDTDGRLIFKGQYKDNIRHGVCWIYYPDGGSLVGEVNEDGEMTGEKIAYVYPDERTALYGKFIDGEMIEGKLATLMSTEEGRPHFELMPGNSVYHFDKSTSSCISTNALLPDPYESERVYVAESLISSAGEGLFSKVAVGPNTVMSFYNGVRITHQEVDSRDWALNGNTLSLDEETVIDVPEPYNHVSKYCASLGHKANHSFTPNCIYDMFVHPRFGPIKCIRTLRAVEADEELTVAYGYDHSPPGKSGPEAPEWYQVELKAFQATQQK
Chain of nicotinamide N-methyltransferase (NNMT) (P40261 whole entry, species assumed): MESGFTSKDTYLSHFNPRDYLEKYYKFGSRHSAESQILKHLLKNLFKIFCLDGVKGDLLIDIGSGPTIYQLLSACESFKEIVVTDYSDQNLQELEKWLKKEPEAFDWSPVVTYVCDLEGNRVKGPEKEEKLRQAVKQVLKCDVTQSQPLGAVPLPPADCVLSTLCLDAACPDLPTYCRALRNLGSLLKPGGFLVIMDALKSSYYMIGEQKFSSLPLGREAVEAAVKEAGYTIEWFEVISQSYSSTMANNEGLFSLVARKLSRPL
Chain of euchromatic histone-lysine N-methyltransferase 2 (G9a) (Q96KQ7 whole entry, species assumed): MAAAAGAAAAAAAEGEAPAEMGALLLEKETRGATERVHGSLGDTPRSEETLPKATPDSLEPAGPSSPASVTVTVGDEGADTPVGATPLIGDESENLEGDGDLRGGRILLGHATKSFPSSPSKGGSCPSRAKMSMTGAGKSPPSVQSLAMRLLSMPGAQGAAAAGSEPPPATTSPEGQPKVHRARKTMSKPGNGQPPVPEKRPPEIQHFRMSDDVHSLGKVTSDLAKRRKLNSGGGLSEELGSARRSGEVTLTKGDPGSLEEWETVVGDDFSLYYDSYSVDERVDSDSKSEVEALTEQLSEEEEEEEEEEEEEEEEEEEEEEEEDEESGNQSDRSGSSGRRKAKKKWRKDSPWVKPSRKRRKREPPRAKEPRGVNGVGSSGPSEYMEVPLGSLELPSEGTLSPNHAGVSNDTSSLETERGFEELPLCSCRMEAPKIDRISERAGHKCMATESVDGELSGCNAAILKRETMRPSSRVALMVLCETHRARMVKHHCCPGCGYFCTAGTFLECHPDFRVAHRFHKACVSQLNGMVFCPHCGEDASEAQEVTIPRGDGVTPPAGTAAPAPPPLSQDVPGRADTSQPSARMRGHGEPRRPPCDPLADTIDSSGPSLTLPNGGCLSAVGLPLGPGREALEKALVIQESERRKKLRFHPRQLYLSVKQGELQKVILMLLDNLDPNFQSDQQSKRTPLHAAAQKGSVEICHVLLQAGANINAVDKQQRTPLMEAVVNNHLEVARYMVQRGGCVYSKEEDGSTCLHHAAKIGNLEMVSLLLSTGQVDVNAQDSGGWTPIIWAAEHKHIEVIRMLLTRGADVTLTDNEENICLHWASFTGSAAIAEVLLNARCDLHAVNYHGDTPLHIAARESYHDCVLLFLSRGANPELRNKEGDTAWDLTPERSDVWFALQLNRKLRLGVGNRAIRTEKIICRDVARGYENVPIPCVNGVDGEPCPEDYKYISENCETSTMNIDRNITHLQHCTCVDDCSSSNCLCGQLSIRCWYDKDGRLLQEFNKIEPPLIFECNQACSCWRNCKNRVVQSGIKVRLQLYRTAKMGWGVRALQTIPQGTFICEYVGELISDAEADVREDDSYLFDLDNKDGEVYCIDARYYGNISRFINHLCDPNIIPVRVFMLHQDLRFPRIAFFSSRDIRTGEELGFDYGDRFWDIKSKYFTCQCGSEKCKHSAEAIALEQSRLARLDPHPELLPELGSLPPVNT

N=C(N)NCCC[C@H](NC(=O)[C@H](CCCCN)NC(=O)[C@@H]1CCCN1C(=O)CNCCCCN(CC[C@H](N)C(=O)O)C[C@H]1O[C@@H](n2cnc3c(N)ncnc32)[C@H](O)[C@@H]1O)C(N)=O [Compound 7, NAH-C4-GPKR]
fold better activity than 5 [1]: 4 fold | fold better activity than 6 [1]: 2 fold

CC[C@H](C)[C@H](NC(=O)[C@H](CCCNC(=N)N)NC(=O)[C@H](CCCCN)NC(=O)[C@@H]1CCCN1C(=O)CNCCCN(CC[C@H](N)C(=O)O)C[C@H]1O[C@@H](n2cnc3c(N)ncnc32)[C@H](O)[C@@H]1O)C(=O)N[C@@H](C)C(N)=O [Compound 2, NAH-C3-GPKRIA]
fold decrease in IC50 activity compared to 3 [1]: 1.5 fold

CC[C@H](C)[C@H](NC(=O)[C@H](CCCNC(=N)N)NC(=O)[C@H](CCCCN)NC(=O)[C@@H]1CCCN1C(=O)CNCCCCN(CC[C@H](N)C(=O)O)C[C@H]1O[C@@H](n2cnc3c(N)ncnc32)[C@H](O)[C@@H]1O)C(=O)N[C@@H](C)C(N)=O [Compound 3, NAH-C4-GPKRIA]
inhibitory activity [2]: barely showed inhibitory activity | inhibitory activity [3]: barely showed inhibitory activity | inhibition at 33 µM [4]: < 50% | tri-methylation of GPKRIA peptide ([5]; 50 nM compound): substantially reduced | tri-methylation of GPKRIA peptide ([5]; 200 nM compound): barely detected | inhibitory activity [6]: barely showed inhibitory activity

N=C(N)NCCC[C@H](NC(=O)[C@H](CCCCN)NC(=O)[C@@H]1CCCN1C(=O)CNCCCN(CC[C@H](N)C(=O)O)C[C@H]1O[C@@H](n2cnc3c(N)ncnc32)[C@H](O)[C@@H]1O)C(N)=O [Compound 6, NAH-C3-GPKR]
fold activity decrease compared to respective NAH-GPKRIA compound [1]: < 2 fold

NAH-C3-GPRRRS
IC50 [7]: 940 ± 160 nM

NAH-C3-PPKRIA
selectivity against other methyltransferases [8]: more than 100 fold | IC50 [9]: 35 ± 2 nM

CC[C@H](C)[C@H](NC(=O)[C@H](CCCNC(=N)N)NC(=O)[C@H](CCCCN)NC(=O)[C@@H]1CCCN1C(=O)CNCCN(CC[C@H](N)C(=O)O)C[C@H]1O[C@@H](n2cnc3c(N)ncnc32)[C@H](O)[C@@H]1O)C(=O)N[C@@H](C)C(N)=O [Compound 1, NAH-C2-GPKRIA]
fold decrease in Ki, app in comparison with 3 [10]: 40 fold | fold decrease in IC50 activity compared to 3 [1]: 3 fold

N=C(N)NCCC[C@H](NC(=O)[C@H](CCCCN)NC(=O)[C@@H]1CCCN1C(=O)CNCCN(CC[C@H](N)C(=O)O)C[C@H]1O[C@@H](n2cnc3c(N)ncnc32)[C@H](O)[C@@H]1O)C(N)=O [Compound 5, NAH-C2-GPKR]
fold activity decrease compared to respective NAH-GPKRIA compound [1]: < 2 fold
